The values that follow come from ChEMBL document CHEMBL1136359, “11,12-epoxyeicosatrienoic acid (11,12-EET): structural determinants for inhibition of TNF-alpha-induced VCAM-1 expression” (Bioorg Med Chem Lett, 2003).

For one test, the system named is HSVEC. Briefly: (§1) Inhibitory activity against tumor necrosis factor-alpha (TNF-alpha) induced vascular cell adhesion molecule-1 (VCAM-1) in human endothelial cells. It counts as functional, cell-based.
Broadly, the IC50 is the concentration that gives 50% inhibition. Read a high IC50 as weaker potency in that assay. The molecule `CCCCCCCCCOCC/C=C\CCCCCCC(=O)O` gave an IC50 of 45 nM.

Regarding `CCCCCCCCC1OC1C/C=C\CCCCCCC(=O)O` (stereo in doubt; 9), the IC50 was found to be 60 nM.

In the next test the test system is HSVEC. The description is as §1. It counts as functional.
One may read the Inhibition as the relative decrease from the control value, in per cent. As for `CCCCC/C=C\C[C@H]1O[C@H]1C/C=C\C/C=C\CCCC(=O)O`, the Inhibition was found to be 31%.

For the molecule `CCCCCCCCC1OC1C/C=C\CCCCOCC(=O)O` (centres undefined), the Inhibition worked out at 3%.

Take `CCCCCCCCC1OC1CC#CCCCCCCC(=O)O` (centres undefined): the Inhibition was found to be 28%.

Take `O=C(O)CCCCCC/C=C\CCOCCCCCCCCCOc1ccc(I)cc1`: the Inhibition was determined as 52%.

As for `CCCCC/C=C\CC1OC1C/C=C\C/C=C\CCCC(=O)O` (centres undefined), the Inhibition came out at 39%.

Consider `CCCCCCCCc1cocc1C/C=C\CCCCCCC(=O)O`, for which the Inhibition came to 50%.

`CCCCCCCCCOCC/C=C\CCCCCCC(=O)NS(C)(=O)=O`: the Inhibition is 1%.

Take `CCCCCCCC[C@@H]1O[C@@H]1C/C=C\CCCCC(=O)O`: the Inhibition is 17%.

Regarding `O=C(O)CCCCCC/C=C\CC1OC1CCCCCCCCO` (centres undefined), the Inhibition was 36%.

In the case of `O=C(O)CCCCCC/C=C\CCOCCCCCCCCCO`, the Inhibition worked out at 27%.

For the molecule `CCCCCCCCCOCC/C=C\CCCCCCC(=O)O`, the Inhibition was 48%.

In the case of `CCCCCCCCC1OC1CCCCCCCCCC(=O)O` (centres undefined), the Inhibition came to 36%.

Regarding `CCCCC/C=C\CC1SC1C/C=C\C/C=C\CCCC(=O)O` (centres undefined), the Inhibition worked out at 65%.

Turning to `CCCCCCCCC1OC1C/C=C\CCCCCCC(=O)NS(=O)(=O)c1ccccc1` (centres undefined), the Inhibition was found to be 33%.

On to `CCCCC/C=C\CC1OC1CCCCCCCCCC(=O)O` (centres undefined), for which the Inhibition is 13%.

Turning to `CCCCC/C=C\C[C@@H]1O[C@@H]1C/C=C\C/C=C\CCCC(=O)O`, the Inhibition is 35%.

`CCCCC/C=C\CC1OC1C/C=C\CCCCCCC(=O)O` (centres undefined): the Inhibition amounted to 10%.

For the molecule `CCCCCCCCC1OC1C/C=C\CCCCCCCO` (centres undefined), the Inhibition turned out to be 32%.

As to `CCCCCCCC[C@H]1O[C@H]1C/C=C\CCCCC(=O)O`, the Inhibition is listed as 13%.

On to `CCCCCCCCC1OC1CCCC/C=C\CCCC(=O)O` (centres undefined), for which the Inhibition came out at 31%.

For `CC(=O)NCCCCCCCCCOCC/C=C\CCCCCCC(=O)O`, the Inhibition stood at 63%.

For the molecule `CCCCCCCCC1CC1C/C=C\CCCCCCC(=O)O` (centres undefined), the Inhibition was determined as 31%.

As to `CCCCC/C=C\CC1OC1CCCC/C=C\CCCC(=O)O` (centres undefined), the Inhibition is 30%.

`CCCCCCCCC1OC1CC/C=C\CCCCCC(=O)O` (centres undefined): the Inhibition came to 13%.

In the case of `CCCCCCCCCCC1OC1C/C=C\CCCCCCC(=O)O` (centres undefined), the Inhibition was -1%.

For `CCCCCCCCC1OC1C/C=C\CCCCCCC(=O)O` (stereo in doubt; 9), the Inhibition turned out to be 69%.

For the molecule `CCCCCCCCC1OC1C/C=C\CCCCCCC(=O)O` (stereo in doubt; 11), the Inhibition worked out at 58%.

Consider `CCCCCCCCC1SC1C/C=C\CCCCCCC(=O)O` (stereo in doubt; 15), for which the Inhibition is 49%.

On to `CCCCCCCCC1SC1C/C=C\CCCCCCC(=O)O` (stereo in doubt; 16), for which the Inhibition is given as 26%.

For `CCCCCCCCC1OC1C/C=C\CCCCCCC(=O)O` (stereo in doubt; 21), the Inhibition is 1%.

Regarding `CCCCCCCCC1OC1C/C=C\CCCCCCC(=O)NS(C)(=O)=O` (stereo in doubt; 29), the Inhibition was 29%.

Consider `CCCCCCCCC1OC1C/C=C\CCCCCCC(=O)NS(C)(=O)=O` (stereo in doubt; 30), for which the Inhibition was found to be 31%.
